These results are taken from patent US10828269B2, “Reducing muscle atrophy by administering astaxanthin” (FUJI CHEMICAL INDUSTRIES CO., LTD., priority 2004, dated 2020).

Experiment [1] concerns gastrocnemius of Wistar male rats. The experiment is described as follows: Muscle atrophy test (sciatic nerve of left leg cut). Format: in vivo, rat. The protocol: 9-week-old Wistar male rats were bred each being fed a normal diet for breeding and water ad libitum under the conditions with a 12 hours light-dark cycle at a temperature of 21° C. to 25° C. and were accustomed to the environment in advance. The rats were divided into two groups of 10 rats per group, and each group was bred with a normal diet (control group) or a diet to which astaxanthin was added (Ax group) fed ad libitum. The diet to which astaxanthin was added was prepared by mixing free astaxanthin at 0.02%. At one week after the start of ingestion of astaxanthin-added diet, the sciatic nerve of the left leg was cut and muscle of the left lower extremity was inactivated. After breeding for further two weeks, rats were killed, triceps surae (soleus muscle, gastrocnemius, and plantaris) were extracted from left leg (limb in which nerves were removed) and right leg (control limb), respectively, and the wet weight of the gastrocnemius was measured. The atrophy rate was calculated using the difference of the wet weight of the gastrocnemius of left lower limb to the wet weight of the gastrocnemius of right lower limb with respect to each group Table 7. […]

Experiment [2] relates to diabetic db/db mice. To be noted: Naito Y. et al, Redox Rep 2002; cited from earlier work.
Experiment [3] deals with ATP-binding cassette, sub-family B (MDR/TAP), member. As to the kind of experiment: GENEchip mRNA expression in gastrocnemius. Format: in vivo, rat. Conditions: probe 1369161_at. The protocol: (§1) After the period of test breeding, kidney was removed and frozen at −80° C. Using an LM200 system (Olympus Corporation), the renal glomerulus was cut from kidney of mice while keeping low temperature. tRNA of renal glomerulus was extracted using tRNA extraction regent “Isogen” (produced by Nippon Gene Co., Ltd.), and then preparation of cRNA and hybridization were performed according to the Affymetrix GeneChip Eukaryotic Small Sample Target Labeling Assay Ver. II.
(§2) (1) Synthesis of first strand cDNA: 1 μL of total RNA solution and 1 of 5 μM T7-Oligo(dT) primer were mixed, heated at 70° C. for 6 minutes, and then cooled at 4° C. for 2 minutes. 3 μL of RT_Premix_1 (1.5 μL DEPC-treated water, 4 μL 5× First strand Buffer, 2 μL DTT (0.1 M), 1.5 μL dNTP Mix (10 mM), 1 μL RNase inhibitor (40 U/μL), and 2 μL Super-Script II (200 U/μL)) was added and reverse transcribed at 42° C. for 1 hour. The sample was heated at 70° C. for 10 minutes to inactivate Super Script II, and then cooled to 4° C. (2) Synthesis of second strand cDNA: 32.5 μl of SS_Premix_1 (91 μL DEPC-treated water, 30 μL 5× Second Strand Buffer, 3 μL dNTP (10 mM), 1 μL E. coli DNA ligase (10 U/μL); 4 μL E. coli DNA polymerase (10 U/μL), and 1 μL RNase H (2 U/μL)) was added to the first strand cDNA solution and allowed to react for 2 hours at 16° C. (3) To the resulting cDNA, was added 1 μL T4 DNA polymerase (5 U/μl) and allowed to react for 10 minutes at 16° C., and purified by ethanol precipitation. (4) In vitro transcription: To the dried double-stranded cDNA pellet, was added 10 μL of reagents (4 μL DEPC-treated water, 4 μL premixed NTPs, 1 μL 10× reaction buffer, and 1 μL 10× enzyme mix), and allowed to react at 37° C. in a water bath for 6 hours. (5) First cycle cRNA was purified using the RNeasy Mini Kit in accordance with the protocol in the handbook (QIAGEN). (6) Subsequently, for the amplification and labeling, the cRNA sample was mixed with random primers (0.2 μg/μL), treated at 70° C. for 10 minutes, cooled on ice for 2 minutes, 5 μL of RT_Premix_2 (5× First Strand Buffer, DTT (0.1 M), dNTP mix (10 mM), RNase inhibitor (40 U/μL), and SuperScript II (200 U/μL) was added, and allowed to react at 42° C. for 1 hour. (7) Next, Second Sstrand cDNA synthesis was carried out by adding 5 μM T7-Oligo(dT) promoter treating at 70° C. for 6 minutes, cooling at 4° C., and adding 62 μL of SS_Premix_2 (43 μL it DEPC-treated water, 15 μL 5× Second Strand Buffer, 1.5 μL dNTP mix (10 mM), and 2 μL E. coli DNA polymerase (10 U/μL)). (8) To the resulting cDNA, was treated added 1 μL of T4 DNA polymerase (5 U/μL), allowed to react at 16° C. for 10 minutes, and purified by ethanol precipitation. (9) To perform in vitro transcription and labeling with the ENZO BioArray High Yield RNA Transcript Labeling Kit, 40 μL of reagents (22 μL DEPC-treated solution, 4 μL 10×HY reaction buffer, 4 μL 10× biotin-labeled ribonucleotides, 4 μL 10×DTT, 4 μL 10× RNase to inhibition mix, and 2 μL 20× T7 RNA polymerase) were added, and allowed to react at 37° C. for 4 hours. (10) Labeled cRNA target was purified with RNeasy columns. (11) The fragmentation and hybridization were performed according to “GeneChip Expression Analysis Technical Manual”.
(§3) The prepared labeled cRNA was hybridized to a GeneChip “mouse Expression Set 430A, representing a total of 22,690 mouse transcripts” (Affymetrix). For data analysis, the GeneChip Analysis Suite Ver. 5.1 (Affymetrix) was used. All microarrays were scaled to a target intensity of 1000 and were compared with background, noise, and overall staining intensity. Differentially expressed transcripts were identified by algorithms of the software y Affymetrix.
(§4) 9-week-old Wistar male rats were bred each being fed a normal diet for breeding and water ad libitum under the conditions with a 12 hours light-dark cycle at a temperature of 21° C. to 25° C. and were accustomed to the environment in advance. […]

Experiment [4] concerns transforming growth factor, beta 2. As to the kind of experiment: GENEchip mRNA expression in gastrocnemius. Conditions: probe 1387172_a_at. Format: in vivo, rat. The protocol: as §1, §2, §3, §4
The test system of experiment [5] is murine thymoma viral (v-akt) oncogene homolog 2. As to the kind of experiment: GENEchip mRNA expression in gastrocnemius. The format is in vivo, rat. Conditions: probe 1387353_at. The protocol: as §1, §2, §3, §4
For experiment [6], the system named is neuronatin. As to the kind of experiment: GENEchip mRNA expression in gastrocnemius. The format is in vivo, rat. To be noted: probe 1369999_a_at. The protocol:
[The source words this procedure for another organism and reports this organism under the same test.] as §1, §2, §3, §4

[7] abbreviates: denervated left leg gastrocnemius, astaxanthin group vs control group.
Setting [8] is: denervated left leg gastrocnemius, astaxanthin-administered group.
The mark [9] stands for this setting: right leg (control) gastrocnemius, astaxanthin group vs control group.
The mark [10] stands for this setting: right leg (control) gastrocnemius, astaxanthin-administered group.

As to `CC1=C(/C=C/C(C)=C/C=C/C(C)=C/C=C/C=C(C)/C=C/C=C(C)/C=C/C2=C(C)C(=O)C(O)CC2(C)C)C(C)(C)CC(O)C1=O` (stereo not drawn) [astaxanthin, 3,3′-dihydroxy-β,β-carotene-4,4′-dione], the “Gastrocnemius Atrophy rate” value in experiment [1] (difference of wet weight of left to right gastrocnemius, Ax group) stood at 37.7%. Also, the “atrophy rate compared with the control group” value in experiment [1] (risk rate 5% or less) is recorded as “smaller value of atrophy rate”. In experiment [2], the blood glucose level entry is listed as “reduces blood glucose level”. In addition, the diabetic nephropathy entry in experiment [2] is “has an effect on the improvement of diabetic nephropathy”. The “gene expression intensity ratio ad/nd” value in experiment [3] (setting [7]) is on record as 1.41; in experiment [4] (setting [7]), 0.57; in experiment [5] (setting [7]), 0.67; in experiment [6] (setting [7]), 0.61. Besides, the luminescence intensity ad in experiment [3] (setting [8]) amounted to 306.9; in experiment [4] (setting [8]), 677.8; in experiment [5] (setting [8]), 1042.6; in experiment [6] (setting [8]), 640.7. Also, the “gene expression intensity ratio ac/nc” value turned out to be 1.34 in experiment [3] (setting [9]), 1.06 in experiment [4] (setting [9]), 0.83 in experiment [5] (setting [9]) and 0.79 in experiment [6] (setting [9]). Moreover, the luminescence intensity ac was 677.1 in experiment [3] (setting [10]), 479.9 in experiment [4] (setting [10]), 715.4 in experiment [5] (setting [10]) and 106.4 in experiment [6] (setting [10]).
